# Results published in US20030086986A1, “Ophthalmic, pharmaceutical and other healthcare preparations with naturally occurring plant compounds, extracts and derivatives” (priority 1998, published 2003).
# Read-outs that look alike come from different tables or passages of the source.
# Experiments:
# Type in all cases: cell-based
# Serratia marcescens = test: Log kill test of disinfectant formulae (6 hours)
# Source text: (§1) Disinfectant and preservative tests are most often performed by challenging the preparation with a concentrated inoculum (e.g., 10^5-10^6 colony forming units (cfu)/ml) of each test organism. Over time samples are taken and plated on a growth medium to estimate the number of live organisms remaining at each time point.
# The method for evaluating the effectiveness of a disinfectant for contact lenses generally requires measuring the ability of the agent to reduce the numbers of viable infective organisms during a period of time consistent with the normal period of storage of contact lenses between wearing times. This reduction of numbers of organisms is typically reported in terms of the change in the common logarithm (base 10 logarithm) of the microbial population as a result of exposure to the antimicrobial or disinfecting agent. For example, if the agent has effected a reduction in the concentration of a particular organisms in a challenge solution from 10^6 colony forming units (cfu) per milliliter (ml) to 10^2 cfu/ml within six hours of exposure then the change, or “log reduction”, of the organism as a result of exposure to the agent would be 4.0 (logs). In other words, the number of viable organisms have been reduced to one ten-thousandth of the original level. […]
# L929 cell = test: Cytotoxicity assay: high water-content soft contact lenses cycled five days in test solution, then L929 cell cytotoxicity model
# Description: The present inventors reported earlier on the anti-cytotoxic properties of certain natural products. Experiments were under taken to confirm the anti-cytotoxic effects of Allantoin in particular. […] Besides the usual microbial tests, the material was also used in a cytotoxicity assay, which consisted of cycling high water-content soft contact lenses for five days in each test solution. Then the solution saturated lenses were tested in a L929 cell cytotoxicity model. Cytotoxicity was rated from 0 to 5 with 2 or greater indicating cytotoxicity.
# Aspergillus niger = test: Log kill test of preservative/disinfectant formulae (challenge inoculum, plating over time)
# Source text: as §1
# (§2) The method for evaluating the effectiveness of a disinfectant for contact lenses generally requires measuring the ability of the agent to reduce the numbers of viable infective organisms during a period of time consistent with the normal period of storage of contact lenses between wearing times. This reduction of numbers of organisms is typically reported in terms of the change in the common logarithm (base 10 logarithm) of the microbial population as a result of exposure to the antimicrobial or disinfecting agent. For example, if the agent has effected a reduction in the concentration of a particular organisms in a challenge solution from 10^6 colony forming units (cfu) per milliliter (ml) to 10^2 cfu/ml within six hours of exposure then the change, or “log reduction”, of the organism as a result of exposure to the agent would be 4.0 (logs). In other words, the number of viable organisms have been reduced to one ten-thousandth of the original level.
# (§3) In procedures for verifying the effectiveness of ophthalmic antimicrobial agents generally recognized guidelines call for the use of Candida albicans (a yeast), Fusarium solani or Aspergillus niger (both molds), Pseudomonas aeruginosa (a Gram-negative bacterium), Staphylococcus aureus (a Gram-positive bacterium), Serratia marcescens (a Gram-negative bacterium) and Escherichia coli (a bacterium common in the human gastrointestinal tract).
# (§4) Various compounds/extracts were tested in the presence of either a phosphate or a borate-buffered solution. The test organisms included (S. aureus.=Staphylococcus aureus; Ps. aeruginosa=Pseudomonas aeruginosa; E. coli=Escherichia coli; C. albicans.=Candida albicans; and A. niger=Aspergillus niger) and inspected at various time intervals to determine the “log kill” of the various formulations.
# Candida albicans = test: as above
# Source text: as §1, §2, §3, §4
# Staphylococcus aureus = test: as above
# Source text: as §1, §2, §3, §4
# [1] = test system: S. aureus, Ps. aeruginosa, E. coli, C. albicans, A. niger; test: Preservative/disinfectant effectiveness against the panel of test organisms (USP Category 1A Preservative Effectiveness Test); conditions: for Effective Concentration (ppm) meeting the USP Category 1A Preservative Effectiveness Test requirements: summary of formulae that meet the requirements
# Source text: as §1, §3, §4
# A recognized standard for evaluating the effectiveness of a preservation agent in contain in the USP. For the reader's convenience the formulae, which meet the USP Category 1A Preservative Effectiveness Test requirements, are summarized in Table 10.
# [2] = Cytotoxicity test, USP 24 <87> Biological Reactivity Tests, In Vitro, USP Elution
# Description: Cytotoxicity studies were also performed to determine the potential of these natural compounds, extracts and derivatives for irritation and discomfort when used as disinfecting or preservative agents. The cytotoxicity test analysis was performed in accordance with USP 24 <87> Biological Reactivity Tests, In Vitro, and USP Elution. Two ml of each sample were diluted with 10 ml of 1× MEM. The biological reactivity were described and rated as 0 (no reactivity), 1 (slight reactivity), 2 (mild reactivity), 3 (moderate reactivity), 4 (severe reactivity).
compound,measurement,setting,value
NC(=O)NC1NC(=O)NC1=O (centres unmarked) [Allantoin],"Effectiveness against Serratia marcescens, in words",Serratia marcescens,effective to augment the killing
same,"Cytotoxicity in L929 cell model, in words",L929 cell; lenses cycled five days in test solution,mitigate the cytotoxic characteristics of PHMB
same,"Effectiveness against Aspergillus niger, in words",Aspergillus niger,quite effective
same,"Effectiveness against Candida albicans, in words",Candida albicans,quite effective
COc1ccc2cc3[n+](cc2c1OC)CCc1cc2c(cc1-3)OCO2 [Berberine],"Effectiveness against Staphylococcus aureus, in words",Staphylococcus aureus,remarkably effective
same,"Effectiveness against Aspergillus niger, in words",Aspergillus niger,remarkably effective
same,"Effectiveness against Candida albicans, in words",Candida albicans,remarkably effective
O=C(/C=C/c1ccc(O)c(O)c1)O[C@@H]1C[C@](O)(C(=O)O)C[C@@H](O)[C@H]1O [Chlorogenic Acid],"Overall disinfectant/preservative effectiveness against the test organisms, in words",[1],quite effective
same,Effective Concentration (ppm) meeting the USP Category 1A Preservative Effectiveness Test requirements,[1],1000 ppm
COc1cc(/C=C/C(=O)O)ccc1O [Ferulic Acid],"Overall disinfectant/preservative effectiveness against the test organisms, in words",[1],quite effective
same,Effective Concentration (ppm) meeting the USP Category 1A Preservative Effectiveness Test requirements,[1],1000 ppm
same,"Effectiveness against Candida albicans, in words",Candida albicans,better activity
"OCCc1ccc(O)c(O)c1 [Hydroxytyrosol, 3,4-dihydroxy-phenylethanol]",Effective Concentration (ppm) meeting the USP Category 1A Preservative Effectiveness Test requirements,[1],200 ppm
same,Grade (biological reactivity),[2]; 33.3 ppm,0
C/C=C1/[C@H](O[C@@H]2O[C@H](CO)[C@@H](O)[C@H](O)[C@H]2O)OC=C(C(=O)OC)[C@H]1CC(=O)OCCc1ccc(O)c(O)c1 [Oleuropein],Grade (biological reactivity),[2]; 8.3 ppm,0
same,Grade (biological reactivity),[2]; 33.3 ppm,0
same,Grade (biological reactivity),[2]; 166.7 ppm,0
O.O.O=c1c(O)c(-c2ccc(O)c(O)c2)oc2cc(O)cc(O)c12 [Quercetin Dihydrate],"Overall disinfectant/preservative effectiveness against the test organisms, in words","[1]; statement of the text, listed as Quercetin dihydrate, Dihydrate",extremely broad effectiveness
same,"Overall disinfectant/preservative effectiveness against the test organisms, in words","[1]; statement of the text, listed as Quercetin, Dihydrate",very good to excellent control
Oc1ccc(C=Cc2cc(O)cc(O)c2)cc1 [Resveratrol],"Overall disinfectant/preservative effectiveness against the test organisms, in words",[1],wide range of effectiveness
"polyhexamethyl biguanide [PHMB, reference compound]","Overall disinfectant/preservative effectiveness against the test organisms, in words",[1],extremely effective against the tested bacteria
same,"Cytotoxicity in L929 cell model, in words",L929 cell,significant level of cytotoxicity
same,"Effectiveness against Candida albicans, in words",Candida albicans,only moderately effective
